From the supplement of paper PMC10307832

How the values were obtained:
Assay in all cases: relative viability (nuclei count vs DMSO), 5 days (fraction); higher = more cells survive
BEN = system: BEN
Summary of the method: (§1)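 A single step with final 0.05% Triton X-100, 1% formaldehyde and 1 ug/ml Hoechst fixed the cells and stained nuclei 5 days after treatment. Lung cancer cell lines in 1536-well plates had been treated by pin tool the day after seeding with one drug alone or a fixed anchor-drug dose plus five library-drug doses (not always all listed) in √10 steps, and nuclei were counted on 4× images. Relative viability is the ratio of nuclei in treated wells to nuclei in vehicle wells, taken as the median of duplicate plates.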

ChaGo-K-1 = system: ChaGo-K-1
Summary of the method: as §1

EKVX = system: EKVX
Summary of the method: as §1

HCC-827 = system: HCC-827
Summary of the method: as §1

HOP-62 = system: HOP-62
Summary of the method: as §1

LCLC-103H = system: LCLC-103H
Summary of the method: as §1

LK-2 = system: LK-2
Summary of the method: as §1

LOU-NH91 = system: LOU-NH91
Summary of the method: as §1

LXF-289 = system: LXF-289
Summary of the method: as §1

NCI-H1355 = system: NCI-H1355
Summary of the method: as §1

NCI-H1437 = system: NCI-H1437
Summary of the method: as §1

NCI-H1666 = system: NCI-H1666
Summary of the method: as §1

NCI-H1944 = system: NCI-H1944
Summary of the method: as §1

NCI-H1993 = system: NCI-H1993
Summary of the method: as §1

NCI-H2126 = system: NCI-H2126
Summary of the method: as §1

NCI-H2170 = system: NCI-H2170
Summary of the method: as §1

NCI-H441 = system: NCI-H441
Summary of the method: as §1

NCI-H647 = system: NCI-H647
Summary of the method: as §1

NCI-H661 = system: NCI-H661
Summary of the method: as §1

NCI-H727 = system: NCI-H727
Summary of the method: as §1

PC-14 = system: PC-14
Summary of the method: as §1

RERF-LC-KJ = system: RERF-LC-KJ
Summary of the method: as §1

SK-MES-1 = system: SK-MES-1
Summary of the method: as §1

Cc1csc(=NC2CCCCC2)n1/N=C/c1ccc(O)c(O)c1O [MIM1] + CC(=O)c1c(C)c2cnc(Nc3ccc(N4CCNCC4)cn3)nc2n(C2CCCC2)c1=O [Palbociclib] (partner 0.5 µM)
relative viability (BEN; first compound 0.2 µM): 0.507
relative viability (BEN; first compound 0.6325 µM): 0.466
relative viability (BEN; first compound 2 µM): 0.438
relative viability (BEN; first compound 6.325 µM): 0.468
relative viability (BEN; first compound 20 µM): 0.407
relative viability (ChaGo-K-1; first compound 0.2 µM): 0.951
relative viability (ChaGo-K-1; first compound 0.6325 µM): 0.926
relative viability (ChaGo-K-1; first compound 2 µM): 0.961
relative viability (ChaGo-K-1; first compound 6.325 µM): 0.7
relative viability (ChaGo-K-1; first compound 20 µM): 0.163
relative viability (EKVX; first compound 0.2 µM): 0.332
relative viability (EKVX; first compound 0.6325 µM): 0.367
relative viability (EKVX; first compound 2 µM): 0.339
relative viability (EKVX; first compound 6.325 µM): 0.312
relative viability (EKVX; first compound 20 µM): 0.286
relative viability (HCC-827; first compound 0.2 µM): 0.443
relative viability (HCC-827; first compound 0.6325 µM): 0.511
relative viability (HCC-827; first compound 2 µM): 0.454
relative viability (HCC-827; first compound 6.325 µM): 0.307
relative viability (HCC-827; first compound 20 µM): 0.227
relative viability (HOP-62; first compound 0.2 µM): 0.454
relative viability (HOP-62; first compound 0.6325 µM): 0.44
relative viability (HOP-62; first compound 2 µM): 0.404
relative viability (HOP-62; first compound 6.325 µM): 0.431
relative viability (HOP-62; first compound 20 µM): 0.127
relative viability (LCLC-103H; first compound 0.2 µM): 0.465
relative viability (LCLC-103H; first compound 0.6325 µM): 0.528
relative viability (LCLC-103H; first compound 2 µM): 0.477
relative viability (LCLC-103H; first compound 6.325 µM): 0.482
relative viability (LCLC-103H; first compound 20 µM): 0.389
relative viability (LK-2; first compound 0.2 µM): 0.774
relative viability (LK-2; first compound 0.6325 µM): 0.495
relative viability (LK-2; first compound 2 µM): 0.468
relative viability (LK-2; first compound 6.325 µM): 0.725
relative viability (LK-2; first compound 20 µM): 0.223
relative viability (LOU-NH91; first compound 0.2 µM): 0.524
relative viability (LOU-NH91; first compound 0.6325 µM): 0.569
relative viability (LOU-NH91; first compound 2 µM): 0.516
relative viability (LOU-NH91; first compound 6.325 µM): 0.499
relative viability (LOU-NH91; first compound 20 µM): 0.36
relative viability (LXF-289; first compound 0.2 µM): 0.603
relative viability (LXF-289; first compound 0.6325 µM): 0.594
relative viability (LXF-289; first compound 2 µM): 0.583
relative viability (LXF-289; first compound 6.325 µM): 0.535
relative viability (LXF-289; first compound 20 µM): 0.237
relative viability (NCI-H1355; first compound 0.2 µM): 0.391
relative viability (NCI-H1355; first compound 0.6325 µM): 0.371
relative viability (NCI-H1355; first compound 2 µM): 0.41
relative viability (NCI-H1355; first compound 6.325 µM): 0.385
relative viability (NCI-H1355; first compound 20 µM): 0.288
relative viability (NCI-H1437; first compound 0.2 µM): 0.305
relative viability (NCI-H1437; first compound 0.6325 µM): 0.35
relative viability (NCI-H1437; first compound 2 µM): 0.312
relative viability (NCI-H1437; first compound 6.325 µM): 0.232
relative viability (NCI-H1437; first compound 20 µM): 0.149
relative viability (NCI-H1666; first compound 0.2 µM): 0.668
relative viability (NCI-H1666; first compound 0.6325 µM): 0.608
relative viability (NCI-H1666; first compound 2 µM): 0.611
relative viability (NCI-H1666; first compound 6.325 µM): 0.647
relative viability (NCI-H1666; first compound 20 µM): 0.67
relative viability (NCI-H1944; first compound 0.2 µM): 0.369
relative viability (NCI-H1944; first compound 0.6325 µM): 0.314
relative viability (NCI-H1944; first compound 2 µM): 0.248
relative viability (NCI-H1944; first compound 6.325 µM): 0.255
relative viability (NCI-H1944; first compound 20 µM): 0.186
relative viability (NCI-H1993; first compound 0.2 µM): 0.624
relative viability (NCI-H1993; first compound 0.6325 µM): 0.706
relative viability (NCI-H1993; first compound 2 µM): 0.659
relative viability (NCI-H1993; first compound 6.325 µM): 0.514
relative viability (NCI-H1993; first compound 20 µM): 0.349
relative viability (NCI-H2126; first compound 0.2 µM): 0.336
relative viability (NCI-H2126; first compound 0.6325 µM): 0.388
relative viability (NCI-H2126; first compound 2 µM): 0.348
relative viability (NCI-H2126; first compound 6.325 µM): 0.34
relative viability (NCI-H2126; first compound 20 µM): 0.329
relative viability (NCI-H2170; first compound 0.2 µM): 0.38
relative viability (NCI-H2170; first compound 0.6325 µM): 0.398
relative viability (NCI-H2170; first compound 2 µM): 0.373
relative viability (NCI-H2170; first compound 6.325 µM): 0.227
relative viability (NCI-H2170; first compound 20 µM): 0.142
relative viability (NCI-H441; first compound 0.2 µM): 0.273
relative viability (NCI-H441; first compound 0.6325 µM): 0.266
relative viability (NCI-H441; first compound 2 µM): 0.205
relative viability (NCI-H441; first compound 6.325 µM): 0.186
relative viability (NCI-H441; first compound 20 µM): 0.114
relative viability (NCI-H647; first compound 0.2 µM): 0.395
relative viability (NCI-H647; first compound 0.6325 µM): 0.404
relative viability (NCI-H647; first compound 2 µM): 0.381
relative viability (NCI-H647; first compound 6.325 µM): 0.338
relative viability (NCI-H647; first compound 20 µM): 0.0937
relative viability (NCI-H661; first compound 0.2 µM): 0.404
relative viability (NCI-H661; first compound 0.6325 µM): 0.42
relative viability (NCI-H661; first compound 2 µM): 0.348
relative viability (NCI-H661; first compound 6.325 µM): 0.33
relative viability (NCI-H661; first compound 20 µM): 0.301
relative viability (NCI-H727; first compound 0.2 µM): 0.634
relative viability (NCI-H727; first compound 0.6325 µM): 0.686
relative viability (NCI-H727; first compound 2 µM): 0.605
relative viability (NCI-H727; first compound 6.325 µM): 0.546
relative viability (NCI-H727; first compound 20 µM): 0.472
relative viability (PC-14; first compound 0.2 µM): 0.475
relative viability (PC-14; first compound 0.6325 µM): 0.554
relative viability (PC-14; first compound 2 µM): 0.464
relative viability (PC-14; first compound 6.325 µM): 0.454
relative viability (PC-14; first compound 20 µM): 0.145
relative viability (RERF-LC-KJ; first compound 0.2 µM): 0.952
relative viability (RERF-LC-KJ; first compound 0.6325 µM): 0.995
relative viability (RERF-LC-KJ; first compound 2 µM): 0.686
relative viability (RERF-LC-KJ; first compound 6.325 µM): 0.613
relative viability (RERF-LC-KJ; first compound 20 µM): 0.227
relative viability (SK-MES-1; first compound 0.2 µM): 0.286
relative viability (SK-MES-1; first compound 0.6325 µM): 0.327
relative viability (SK-MES-1; first compound 2 µM): 0.282
relative viability (SK-MES-1; first compound 6.325 µM): 0.259
relative viability (SK-MES-1; first compound 20 µM): 0.174
